Where two headings read alike, the source gives them in different places.

In one series the test system is pain threshold in mice. Nature of the series: Mouse Grid Shock (pain threshold). The series is classed as in vivo. The following applies: ip, read-out: Grid shock MED. Here is the method: The mouse grid consists of a perspex cage with wire grid bottom and a perspex lid, on which is placed a microphone sensitive to the frequency of mouse-squeak. A stimulator with motordriven potentiometer applies a sequence of square wave impulses of continuously increasing milliamperage to the grid. Frequence of impulses 20 cycles/sec., duration 5 msec. Milliamperage is recorded on a digital amperemter connected to the stimulator. Activation of the microphone by a mouse-squeak cuts off the current and the final milliamperage appear on the meter.
Five mice are used for each dose level. Each mouse serves as its own control. Prior to the administration of test substance the animals are placed on the grid one at a time, and the pain threshold is determined by increasing the current intensity until the mouse squeaks. The pain threshold may be read on the milliampermeter. Fifteen minutes and 30 minutes after administration of test substance the mice are tested again and the pain thresholds recorded.
Analgesic effect is present when the pain threshold is increased over the predosing value (control value). The results are stated as % increase in pain threshold calculated on the basis of the control value. The registration can also be done as an on-line procedure. In this case the punching instruction and punching cards will be provided automatically, and the results will be registered as a minimal effective dose (MED) determined after van der Waerden's X-test.

Series [1] addresses muscarinic cholinergic receptors. Nature of the series: 3H-PrBCM binding to muscarinic cholinergic receptors (brain). To be noted: rat whole brain minus cerebellum; 1.5 nM 3H-PrBCM, 30° C. Here is the method: ^3 --H-PrBCM binding to muscarinic cholinergic receptors
Whole brain minus cerebellum of a rat was homogenized in 10 vol icecold 0.32M sucrose, pH 7.4. The homogenate was centrifuged at 600 g for 10 minutes and the supernatant at 25000 g for 55 min. at 4° C. with rehomogenization of the pellet in 0.32M sucrose. Incubation tubes in triplicate received at 30° C. test substance and tissue suspension. After 10 min. of incubation ligand (NEN,28-44 Ci/mmol) was added (final conc. of ^3 H-PrBCM: 1.5 nM). After 15 min. of incubation the reaction was stopped by addition of sodiumthiosulphate. The samples were filtered through Whatman GF/B filters (25 mm). The tubes and filters were rinsed twice with buffer. Non-specific binding was determined in the presence of 2.5 μM atropine. IC50 values were calculated by log probit analysis.

Series [2] concerns isoniazide-induced seizures in mice. Nature of the series: Isoniazide antagonism (convulsions). The series is classed as in vivo. To be noted: Mus musculus, ip, read-out: Isoniazide antagonism ED50. Here is the method: Isoniazide 300 mg/kg s.c.
Five mice are used for each dose level. Immediately after administration of test substance, isoniazide 300 mg/kg is injected s.c. This dose of isoniazide induces intermittent tonic clonic seizures within 60 minutes.
The calculations are performed as an "on-line procedure" on the EDP-terminal. The results are recorded as % increase in time until convulsions occur and, ED50 values were determined.

The test system of series [3] is muscarinic cholinergic receptors (guinea pig ileum). Nature of the series: Muscarinic cholinergic agonism, guinea pig ileum. The following applies: Cavia porcellus; isolated guinea pig ileum, contraction, log-probit analysis; read-out: Musc. agonism ileum ED50. In kind it is cell-based. Here is the method: Muscarinic cholinergic agonism, guinea pig ileum
Tyrode solution (NaCl 137 mM, KCl 2.7 mM, CaCl2 1.8 mM, MgCl2 1.1 mM, NaH2 PO4 0.32 mM, NaHCO3 4.8 mM, glucose 5.0 mM) foregassed with oxygen.
A guinea pig is killed by a blow on its head and exsanguinated. The caudal part (about 15 cm) of ileum is removed and cleaned in Tyrode solution. Three ileum pieces (2.5-3.0 cm long) are cut and placed separately in 10 ml organ baths containing Tyrode solution. Each specimen is fixed to a pin in the bottom of the organ bath and connected through a spring to a Grass FT 03 transducer (isotonic measurement). The specimens are kept under a tone of 1.0 g.
Concentration response curves to acetylcholine and test drugs are obtained by adding alternately acetylcholine and the test drugs in Tyrode solution to the both in 3-6 different concentrations. Each concentration is allowed to exert its maximal contracting effect before the tissue is washed and the next concentration is added.
From the concentration effect curves the […] values for acetylcholine and the test drugs are calculated by log-probit analysis.

In series [4] the test system is heat stimulus reaction in rats. Description: Hot Plate Test. In kind it is in vivo. To be noted: Rattus norvegicus, sc, 0.5 h, s.c., 55° C. hot plate, 30 minutes after injection. Here is the method:
A group of 10 rats was used for each dose. Each rat was placed on a 55° C. hot plate and the reaction time in seconds was recorded from the moment the rat was placed on the plate until the rat reacted to the heat stimulus. The criteria for reaction were licking of paws, lifting of legs or jumping. The rat was removed from the plate immediately after the reaction. The rat was rejected if the reaction time was more than 10 seconds. After control testing the test substance was injected subcutaneously. The rat was tested on the hot plate 30 minutes after the injection and the reaction times were recorded. A cut-off time of 30 seconds was used. The results were expressed as mean percent effect (MPE), and ED50 values were calculated.

For series [5] the following is noted: peripheral administration; cited from earlier work.
The conditions of series [6]: peripheral administration; cited from earlier work. This is another data set of the same source.
The conditions of series [7]: cited from earlier work.
A further series has as its system AcCh receptors. To be noted: background statement; cited from earlier work.
[8] abbreviates: mice, minimal effective dose, increase in pain threshold, test substance i.p. (may be tested orally).
[9] abbreviates: mice, test compound i.p., isoniazide 300 mg/kg s.c., time until convulsions.

As usually defined, the IC50 is the concentration at which inhibition is half-maximal. High values mean a need for much substance, low ones inhibition by little substance. As usually defined, the ED50 is the dose that gives a 50% effect, or the effect in half of the subjects. Take `COc1noc2c1CNCC2C` (racemic) [O,7-Dimethyl-THPO, 3-Methoxy-7-methyl-4,5,6,7-tetrahydroisoxazolo[4,5-c]pyridine]: the minimal effective dose in the series with pain threshold in mice (setting [8]) amounted to 98 µmol/kg. In addition, the half-inhibitory concentration (IC50) in series [1] turned out to be 12 µM. Also, the ED50 in series [2] (setting [9]) was 110 µmol/kg; in series [4], above 98 µmol/kg. Also, in [3], the EC50 amounted to 13 µM.
Take `COC(=O)C1=CCCN(C)C1` [Arecoline, methyl 1-methyl-1,2,5,6-tetrahydropyridine-3-carboxylate]: in [5], the “penetration of the BBB” value is “capable of penetrating the BBB after peripheral administration”. Also, the central effects result in series [6] was “very weak and frequently negligible central effects”. Also, the “hydrolysis of ester group in vivo” value in [7] is “very rapidly hydrolyzed in vivo”. Moreover, the AcCh agonist entry in the series with AcCh receptors is recorded as “AcCh agonist”.
Regarding `COc1noc2c1CN(C)CC2` [O,5-Dimethyl-THPO, 3-Methoxy-5-methyl-4,5,6,7-tetrahydroixoxazolo[4,5-c]pyridine], in the series with pain threshold in mice (setting [8]), the minimal effective dose was 49 µmol/kg. In addition, the IC50 in series [1] was 27 µM. In addition, the ED50 in series [2] (setting [9]) came to 29 µmol/kg; in series [4], 99 µmol/kg. Moreover, in series [3], the EC50 is 0.83 µM.
As for `C=CCOc1noc2c1CNCC2` [O--Allyl-THPO, 3-Allyloxy-4,5,6,7-tetrahydroisoxazolo[4,5-c]pyridine], in the series on pain threshold in mice (setting [8]), the minimal effective dose was found to be 46 µmol/kg. The compound further displayed an IC50 in [1] of 9.6 µM. The ED50 in [2] (setting [9]) is 23 µmol/kg; in series [4], above 92 µmol/kg. Also, the EC50 in series [3] is above 13 µM.
For the compound `c1ccc(COc2noc3c2CNCC3)cc1` [O--Benzyl-THPO, 3-Benzyloxy-4,5,6,7-tetrahydroisoxazolo[4,5-c]pyridine], the minimal effective dose in the series with pain threshold in mice (setting [8]) is above 150 µmol/kg. Besides, in series [1], the IC50 worked out at 32 µM. The median effective dose (ED50) in series [2] (setting [9]) was 19 µmol/kg; in series [4] it was above 75 µmol/kg. Further, in series [3], the EC50 was above 13 µM.
On to `CCCCOc1noc2c1CNCC2` [O--Butyl-THPO, 3-Butoxy-4,5,6,7-tetrahydroisoxazolo[4,5-c]pyridine], for which the minimal effective dose with pain threshold in mice (setting [8]) is above 170 µmol/kg. The compound further had an IC50 in series [1] of 15 µM. The ED50 in series [2] (setting [9]) was above 170 µmol/kg; in series [4], above 86 µmol/kg. Moreover, in [3], the EC50 is above 13 µM.
On to `CC=CCOc1noc2c1CNCC2` [O--Crotyl-THPO, 3-(2-Butenyloxy)-4,5,6,7-tetrahydroisoxazolo[4,5-c]pyridine], for which the minimal effective dose in the series on pain threshold in mice (setting [8]) turned out to be 170 µmol/kg. The IC50 in series [1] stood at 14 µM. Besides, the ED50 in series [2] (setting [9]) was below 43 µmol/kg; in series [4] it was above 87 µmol/kg. In [3], the EC50 is above 13 µM.
For `CCOc1noc2c1CN(C)CC2` [O--Ethyl-5-Methyl-THPO, 3-Ethoxy-5-methyl-4,5,6,7-tetrahydroisoxazolo[4,5-c]pyridine] the same measures were above 91 µmol/kg, 2.4 µM, 41 µmol/kg, above 91 µmol/kg and 1.6 µM.
As for `CCOc1noc2c1CNCC2` [O--Ethyl-THPO, 3-Ethoxy-4,5,6,7-tetrahydroisoxazolo[4,5-c]pyridine], the minimal effective dose with pain threshold in mice (setting [8]) is above 98 µmol/kg. For the same compound, in series [1], the IC50 was 6 µM. The ED50 is 7.3 µmol/kg in series [2] (setting [9]) and above 98 µmol/kg in series [4]. Moreover, the EC50 in series [3] came to 3.4 µM.
Regarding `CC(C)COc1noc2c1CNCC2` [O--Isobutyl-THPO, 3-Isobutoxy-4,5,6,7-tetrahydroisoxazolo[4,5-c]pyridine], the minimal effective dose in the series on pain threshold in mice (setting [8]) was above 86 µmol/kg. Further, the 50% inhibitory concentration (IC50) in series [1] is above 13 µM. In addition, the ED50 is 48 µmol/kg in [2] (setting [9]) and above 86 µmol/kg in [4]. The EC50 in series [3] was above 13 µM.
Consider `CC(C)Oc1noc2c1CNCC2` [O--Isopropyl-THPO, 3-Isopropoxy-4,5,6,7-tetrahydroisoxazolo[4,5-c]pyridine], for which, in the series on pain threshold in mice (setting [8]), the minimal effective dose is above 46 µmol/kg. Also, in series [1], the IC50 was determined as 3.5 µM. Also, the ED50 in series [2] (setting [9]) is 19 µmol/kg; in series [4] it was above 91 µmol/kg. The EC50 in [3] is above 13 µM.
The corresponding values for `COc1noc2c1CN(Cc1ccccc1)CC2` [O--Methyl-5-Benzyl-THPO, 3-Methoxy-5-benzyl-4,5,6,7-tetrahydroisoxazolo[4,5-c]pyridine] are above 71 µmol/kg, above 50 µM, 71 µmol/kg, above 71 µmol/kg and above 13 µM.
`CCN1CCc2onc(OC)c2C1` [O--Methyl-5-Ethyl-THPO, 3-Methoxy-5-ethyl-4,5,6,7-tetrahydroisoxazolo[4,5-c]pyridine]: the minimal effective dose in the series on pain threshold in mice (setting [8]) was found to be 84 µmol/kg. The compound also yielded an IC50 in series [1] of 15 µM. Further, the ED50 in [2] (setting [9]) was determined as 84 µmol/kg. In addition, the EC50 in series [3] was above 13 µM.
For the compound `COc1noc2c1CNCC2` [O--Methyl-THPO, 3-Methoxy-4,5,6,7-tetrahydroisoxazolo[4,5-c]pyridine], the minimal effective dose with pain threshold in mice (setting [8]) turned out to be 26 µmol/kg. Also, the IC50 in series [1] came to 45 µM. Further, the ED50 in [2] (setting [9]) worked out at 2.8 µmol/kg; in [4] it was 62 µmol/kg. For the same compound, the EC50 in series [3] turned out to be 1.8 µM.
`C#CCOc1noc2c1CNCC2` [O--Propargyl-THPO, 3-(2-Propynyloxy)-4,5,6,7-tetrahydroisoxazolo[4,5-c]pyridine]: the minimal effective dose in the series on pain threshold in mice (setting [8]) was determined as 11 µmol/kg. Besides, the IC50 in series [1] is 5.8 µM. Also, the median effective dose (ED50) in series [2] (setting [9]) turned out to be 3 µmol/kg; in series [4] it was 86 µmol/kg. Besides, in series [3], the EC50 was found to be 1.2 µM.
For `CCCOc1noc2c1CNCC2` [O--Propyl-THPO, 3-Propoxy-4,5,6,7-tetrahydroisoxazolo[4,5-c]pyridine] the same measures were above 91 µmol/kg, 10 µM, 50 µmol/kg, above 91 µmol/kg and above 13 µM.
As to `Oc1noc2c1CNCC2` [THPO, 3-Hydroxy-4,5,6,7-tetrahydroisoxazolo[4,5-c]pyridinium bromide, reference compound], the minimal effective dose with pain threshold in mice is above 1500 µmol/kg. For the same compound, the figures for the ED50 in series [2] and in [4] were above 1500 µmol/kg and above 90 µmol/kg, respectively. For the same compound, in series [3], the EC50 is above 13 µM.

Source of the values: patent publication US4608378A, “Tetrahydroisoxazolo[4,5-c]pyridine derivatives useful in the treatment of malfunctions of the acetylcholine or muscarinic systems” (H. Lundbeck A/S, priority 1983, dated 1986).
